From PubChem BioAssay (NCI)
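Compound exposure: 48 hours, 5 concentrations, 96-well plates. GI50 is the concentration that inhibits growth by half. The concentration for full growth arrest is given as TGI.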

Tests used:
Assay in all cases: NCI-60 cell line screen, 48 h
[1] = test system: NCI/ADR-RES ovarian
[2] = test system: SW-620 colon
[3] = test system: RPMI-8226 leukemia
[4] = test system: HCC-2998 colon
[5] = test system: IGROV1 ovarian
[6] = test system: UACC-62 melanoma
[7] = test system: NCI-H226 lung
[8] = test system: COLO 205 colon
[9] = test system: SN12C renal
[10] = test system: HS 578T breast

| Compound | GI50 [1] [µM] | TGI [1] [µM] | GI50 [2] [µM] | TGI [2] [µM] | GI50 [3] [µM] | TGI [3] [µM] | GI50 [4] [µM] | TGI [4] [µM] | GI50 [5] [µM] | TGI [5] [µM] | GI50 [6] [µM] | TGI [6] [µM] | GI50 [7] [µM] | TGI [7] [µM] | GI50 [8] [µM] | TGI [8] [µM] | GI50 [9] [µM] | TGI [9] [µM] | GI50 [10] [µM] | TGI [10] [µM] |
| --- | --- | --- | --- | --- | --- | --- | --- | --- | --- | --- | --- | --- | --- | --- | --- | --- | --- | --- | --- | --- |
| CC(=O)ON(OCc1ccc2ccccc2c1)C(C)=O | > 100 | > 100 | > 100 | > 100 | > 100 | > 100 | > 100 | > 100 | > 100 | > 100 | > 100 | > 100 | > 100 | > 100 | > 100 | > 100 | > 100 | > 100 | 55.2 | > 100 |
| CCCCNc1ncnc2c1cnn2-c1ccccc1 | 0.514 | 5.26 | 0.709 | > 100 | 3.76 | > 28.3 | 5.72 | 37.8 | 2.22 | > 100 | 5.04 | > 100 | 13.7 | 86.1 | 1.15 | 11.7 | 6.18 | > 100 | 3.48 | 58.2 |
| Clc1ccc2c(NCCNc3nc(N4CCOCC4)nc4ccccc34)ccnc2c1 | 3.73 | 15.5 | 2.97 | 10.8 | 1.72 | 5.17 | 2.67 | 6.54 | 2.88 | 10.2 | 1.94 | 3.75 | 1.68 | 3.57 | 2.02 | 4.46 | 2.75 | 7.69 | 2.58 | 7.71 |
| COc1cccc(C2CC(=O)Nc3c2c(C)nn3-c2nc3ccccc3[nH]2)c1OC (configuration not stated) | 6.67 | > 100 | 4.19 | 46.4 | 3.21 | 10.6 | 18.1 | > 79.8 | 4.33 | 24 | 2.52 | 7.86 | 3.36 | 15.9 | 5.72 | 20.1 | 4.29 | 48.3 | 3.51 | 47.5 |
| COc1cc2c(c(OC)c1OC)-c1cc(I)c(O)cc1[C@@H](NC(C)=O)CC2 | 0.681 | > 20.3 | 0.039 | > 100 | 0.035 | 2.53 | 0.0655 | 3 | 0.137 | > 31.6 | 0.0448 | > 100 | 0.299 | 99.2 | 0.0385 | 0.155 | 0.106 | > 100 | 0.029 | – |
| CCSC[C@@H]1C[C@](O)(c2ccccc2)[C@@H](c2ccccc2)O1 | 77.8 | > 100 | > 100 | > 100 | 28.7 | > 100 | > 100 | > 100 | 59.5 | > 100 | 69.2 | > 100 | > 77.1 | > 100 | > 78.9 | > 100 | > 94.5 | > 100 | 50.9 | > 97.1 |
| Cc1cc(NC(=O)NCc2ccc(N3C(N)=NC(N)=NC3(C)C)cc2)ccc1S(=O)(=O)F | > 100 | > 100 | 0.491 | > 100 | 4.55 | > 100 | 1.96 | > 100 | 0.388 | > 100 | 0.998 | > 100 | > 61.2 | > 100 | 2.77 | > 100 | 0.833 | > 100 | > 48.7 | > 100 |
| O=c1cc(-c2ccccc2)oc2ccc(Cl)cc12 | – | > 100 | – | > 100 | – | > 100 | – | > 100 | – | > 100 | – | > 79.4 | – | > 100 | – | > 85.7 | – | > 100 | – | > 91.8 |
| COc1cc(-c2nc(-c3ccccc3)c(-c3ccccc3)[nH]2)cc(OC)c1O | 24.6 | 73.8 | 16.6 | 33.1 | 24.1 | 83 | 17.1 | 32.7 | 26.9 | 61.2 | 15.2 | 29.6 | 21.2 | 50 | 19.6 | 36.4 | 17.6 | 37.5 | 19.4 | 52.9 |
| Clc1ccc(C=Nc2ccc(-c3nc4ccccc4[nH]3)cc2)cc1 | > 100 | > 100 | > 100 | > 100 | > 100 | > 100 | > 100 | > 100 | > 100 | > 100 | > 100 | > 100 | > 100 | > 100 | > 100 | > 100 | > 100 | > 100 | 39 | > 100 |
| Nc1ncn([C@H]2CC(O)[C@@H](CO)S2)c(=O)n1 (some centres not stated) | 0.559 | > 100 | 1.48 | > 100 | 6.22 | > 100 | 2.44 | > 100 | 10.2 | > 100 | 8.51 | > 100 | 20.3 | > 100 | 0.839 | > 100 | 3.6 | > 100 | 39.3 | > 100 |
| C=CCC(N[C@@H](CO)c1ccccc1)c1ccc2ccccc2n1 (some centres not stated) | > 100 | > 100 | > 100 | > 100 | 30.2 | > 100 | > 100 | > 100 | 29.9 | > 100 | > 100 | > 100 | > 100 | > 100 | > 100 | > 100 | 67.5 | > 100 | > 100 | > 100 |
| Cn1c(=O)c(-c2ccccc2Cl)cc2cnc(NC3CCOCC3)nc21 | 12.9 | > 25 | 14.8 | > 25 | > 15.7 | > 25 | > 21.8 | > 25 | 9.42 | > 25 | 6.37 | > 25 | 12.3 | > 25 | 9.61 | > 25 | 8.05 | > 25 | 9.12 | > 25 |
| CCN(CC)c1ccc(/C=N/NC(=O)Cc2ccc(Nc3ccnc(C(F)(F)F)c3)cc2)c(O)c1 | 1.19 | > 100 | 0.729 | > 100 | 0.521 | 54.2 | 1.17 | > 100 | 0.472 | > 22 | 0.48 | 7.86 | 0.699 | > 23.5 | 1.24 | > 100 | 1.15 | > 100 | 1.95 | > 48.9 |
| Cc1cc(N2CCC(N3CCCC3)CC2)nc(/N=C(\N)Nc2ccc(Cl)c(Cl)c2)n1 | 2.58 | 7.66 | 1.57 | 3.24 | 0.264 | 0.926 | 1.54 | 3.17 | 2.14 | 5.11 | 1.9 | 3.6 | 1.79 | 3.69 | 1.7 | 3.26 | 2.7 | 10.9 | 1.91 | 5.06 |
| O=c1c(I)c[nH]cc1I | > 100 | > 100 | > 100 | > 100 | > 100 | > 100 | > 100 | > 100 | 98.3 | > 100 | > 100 | > 100 | > 100 | > 100 | > 100 | > 100 | > 100 | > 100 | > 100 | > 100 |
| Nc1ccc(CC[C@H]2CCC/C=C/[C@@H]3C[C@H](O)C[C@H]3[C@H](O)/C=C/C(=O)O2)cc1 | 0.0376 | – | 0.0329 | 0.203 | 0.0322 | 0.121 | 0.0266 | – | 0.0367 | 0.175 | 0.0488 | 14.1 | 0.0226 | 0.0704 | 0.0188 | 0.034 | 0.0639 | > 100 | < 0.0163 | > 58.9 |
| C=C1C(=O)OC2CC(C)C(/C=C/C(C)=O)=CCC12 (configuration not stated) | – | > 100 | – | > 100 | – | > 100 | – | > 100 | – | > 100 | – | > 100 | – | > 100 | – | > 100 | – | > 100 | – | > 100 |
| Nc1nc(SCc2ccccc2CCl)c2[nH]cnc2n1 | 20.9 | 67.7 | 14.8 | 29.2 | 31.9 | > 100 | 18.8 | 33.3 | 14.5 | 47.9 | 14.3 | 30.1 | 17.1 | 34.4 | 16.2 | 36.1 | 21.2 | 71.7 | 18.3 | 97.2 |
| O=C1/C(=C/c2ccc(Cl)cc2)CCC1CNc1ccc(Cl)cc1 (configuration not stated) | – | 67.1 | – | 11.4 | – | 6.68 | – | 21.6 | – | 27.3 | – | 7.29 | – | 98 | – | 15.8 | – | 29.4 | – | 64.9 |
